Source: PubChem BioAssay (NCI)
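Cells were grown in 96-well plates and exposed to each compound for 48 hours at five concentrations; endpoints were interpolated linearly between bracketing concentrations, or set to the highest concentration if not reached. At the GI50, growth is halved. TGI is the concentration that stops growth completely.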

How the values were obtained:
Assay in all cases: NCI anticancer screen, dose series, 48 h
[1] = tested on: T-47D breast
[2] = tested on: NCI/ADR-RES ovarian
[3] = tested on: NCI-H226 lung
[4] = tested on: BT-549 breast
[5] = tested on: HOP-62 NSCLC
[6] = tested on: OVCAR-8 ovarian
[7] = tested on: SF-539 CNS
[8] = tested on: MDA-MB-435
[9] = tested on: HCT-15 colon
[10] = tested on: UACC-257 melanoma
[11] = tested on: OVCAR-4 ovarian
[12] = tested on: SW-620 colon
[13] = tested on: MDA-MB-231 breast
[14] = tested on: SR leukemia
[15] = tested on: A498 renal
[16] = tested on: MALME-3M melanoma
[17] = tested on: 786-0 renal
[18] = tested on: SNB-19 CNS
[19] = tested on: MCF7 breast
[20] = tested on: TK-10 renal
[21] = tested on: A549 NSCLC
[22] = tested on: OVCAR-5 ovarian
[23] = tested on: KM12 colon
[24] = tested on: SK-OV-3 ovarian
[25] = tested on: CCRF-CEM leukemia
[26] = tested on: SNB-75 CNS
[27] = tested on: M14 melanoma
[28] = tested on: RPMI-8226 leukemia
[29] = tested on: ACHN renal
[30] = tested on: NCI-H522 lung
[31] = tested on: DU-145 prostate
[32] = tested on: LOX IMVI melanoma
[33] = tested on: PC-3 prostate
[34] = tested on: U251 CNS
[35] = tested on: HCT-116 colon
[36] = tested on: UO-31 renal
[37] = tested on: SK-MEL-2 melanoma
[38] = tested on: EKVX NSCLC
[39] = tested on: SK-MEL-28 melanoma
[40] = tested on: HL-60(TB) leukemia
[41] = tested on: MOLT-4 leukemia
[42] = tested on: HOP-92 NSCLC
[43] = tested on: NCI-H460 lung
[44] = tested on: NCI-H23 lung
[45] = tested on: IGROV1 ovarian
[46] = tested on: SF-268 CNS
[47] = tested on: COLO 205 colon
[48] = tested on: UACC-62 melanoma
[49] = tested on: SK-MEL-5 melanoma
[50] = tested on: SN12C renal
[51] = tested on: CAKI-1 renal
[52] = tested on: HCC-2998 colon
[53] = tested on: K-562 leukemia
[54] = tested on: SF-295 CNS
[55] = tested on: HS 578T breast
[56] = tested on: HT29 colon
[57] = tested on: RXF 393 renal
[58] = tested on: OVCAR-3 ovarian

SMILES: Cc1cc(Cl)ccc1Nc1nc(C(F)(F)F)ccc1C(=O)N/N=C/c1cccc(O)c1
- GI50 [1]: 112 nM
- TGI [1]: 3.13 µM
- GI50 [2]: 4.78 µM
- TGI [2]: 17.6 µM
- GI50 [3]: 3.74 µM
- TGI [3]: 20.1 µM
- GI50 [4]: 861 nM
- TGI [4]: 4.24 µM
- GI50 [5]: 7.22 µM
- TGI [5]: 20.7 µM
- GI50 [6]: 1680 nM
- TGI [6]: 15.3 µM
- GI50 [7]: 4.38 µM
- TGI [7]: 15.8 µM
- GI50 [8]: 2170 nM
- TGI [8]: 13.7 µM
- GI50 [9]: 2510 nM
- TGI [9]: 16 µM
- GI50 [10]: 11.5 µM
- TGI [10]: 38.2 µM
- GI50 [11]: 1130 nM
- TGI [11]: 14.6 µM
- GI50 [12]: 3.39 µM
- TGI [12]: 14.9 µM
- GI50 [13]: 4.77 µM
- TGI [13]: 35.4 µM
- GI50 [14]: 836 nM
- TGI [14]: 4.49 µM
- GI50 [15]: 4.23 µM
- TGI [15]: 18.1 µM
- GI50 [16]: 1750 nM
- TGI [16]: 8.8 µM
- GI50 [17]: 4.01 µM
- TGI [17]: 13.3 µM
- GI50 [18]: 2370 nM
- TGI [18]: 11.9 µM
- GI50 [19]: 2210 nM
- TGI [19]: 12.7 µM
- GI50 [20]: 2450 nM
- TGI [20]: 12.3 µM
- GI50 [21]: 8.15 µM
- TGI [21]: 25.5 µM
- GI50 [22]: 5.96 µM
- TGI [22]: 25 µM
- GI50 [23]: 2560 nM
- TGI [23]: 11.9 µM
- GI50 [24]: 1230 nM
- TGI [24]: 10.6 µM
- GI50 [25]: 449 nM
- TGI [25]: 2410 nM
- GI50 [26]: 2070 nM
- TGI [26]: 13.8 µM
- GI50 [27]: 4.53 µM
- TGI [27]: 17.3 µM
- GI50 [28]: 2510 nM
- TGI [28]: 9.68 µM
- GI50 [29]: 4.19 µM
- TGI [29]: > 31.8 µM
- GI50 [30]: 8.28 µM
- TGI [30]: > 41 µM
- GI50 [31]: 3.66 µM
- TGI [31]: 15.2 µM
- GI50 [32]: 3.18 µM
- TGI [32]: 13.6 µM
- GI50 [33]: 2960 nM
- TGI [33]: 12.9 µM
- GI50 [34]: 4.51 µM
- TGI [34]: 19.8 µM
- GI50 [35]: 4.42 µM
- TGI [35]: 16.5 µM
- GI50 [36]: 4.98 µM
- TGI [36]: 29 µM
- GI50 [37]: 2090 nM
- TGI [37]: 12.7 µM
- GI50 [38]: 814 nM
- TGI [38]: 7.19 µM
- GI50 [39]: 3.65 µM
- TGI [39]: 16.8 µM
- GI50 [40]: 2110 nM
- TGI [40]: 4.97 µM
- GI50 [41]: 1010 nM
- TGI [41]: 3.27 µM
- GI50 [42]: 3.36 µM
- TGI [42]: 13.9 µM
- GI50 [43]: 3.57 µM
- TGI [43]: 12.8 µM
- GI50 [44]: 6.66 µM
- TGI [44]: 20.1 µM
- GI50 [45]: 3.85 µM
- TGI [45]: 23.4 µM
- GI50 [46]: 1600 nM
- TGI [46]: 12.2 µM
- GI50 [47]: 1170 nM
- TGI [47]: 9.55 µM
- GI50 [48]: 5.88 µM
- TGI [48]: 19.5 µM
- GI50 [49]: 3.35 µM
- TGI [49]: 12.6 µM
- GI50 [50]: 6.77 µM
- TGI [50]: 23.8 µM
- GI50 [51]: 202 nM
- TGI [51]: 5.98 µM
- GI50 [52]: 3.13 µM
- TGI [52]: 13.8 µM
- GI50 [53]: 1990 nM
- TGI [53]: 7.1 µM
- GI50 [54]: 159 nM
- TGI [54]: 1100 nM
- GI50 [55]: 2110 nM
- TGI [55]: 11.5 µM
- GI50 [56]: 5.03 µM
- TGI [56]: 16.9 µM
- GI50 [57]: 194 nM
- TGI [57]: 11.3 µM
- GI50 [58]: 1480 nM
- TGI [58]: 12.7 µM
